Measured values taken from article PMC7071059, “Targeting Receptor Tyrosine Kinase VEGFR-2 in Hepatocellular Cancer: Rational Design, Synthesis and Biological Evaluation of 1,2-Disubstituted Benzimidazoles” (Molecules, 2020).

How the values were obtained:
Experiment in all cases: NCI 60 one dose (10 μM) anticancer assay
Type in all cases: cell-based
A498 = settings: Homo sapiens, 10 µM one dose, Renal Cancer, read-out: Growth Inhibition % A498
Experimental: (§1) Some of the synthesized compounds were selected by the NCI, Bethesda, MD, USA for evaluation of their anticancer activity. An in vitro one dose (10 μM) anticancer assay was conducted on a full NCI 60-cell line panel derived from 9 different cancer types. Table 2 presents the percent of growth inhibition of some cell lines. […] K-562 and MOLT-4 from leukemia, NCI-H522 from non-small cell lung cancer, HCT-116 from colon cancer, SK-MEL-5 and UACC-62 from melanoma, UO-31 from renal cancer, PC-3 from prostate cancer and HS 578T and T-47D from breast cancer are the most sensitive cell lines to the tested compounds. No growth inhibition was observed from the selected compounds against COLO205, HCC-2998, MALME-3M, SK-MEL-28, DU-145 and BT-549 cell lines. […] Against UO-31 from renal cancer and PC-3 from prostate cancer, it inhibited the growth of 44% and 58% of the cancer cells, respectively.

A549/ATTC = settings: Homo sapiens, 10 µM one dose, Non-small cell lung Cancer, read-out: Growth Inhibition % A549/ATTC
Experimental: as §1

CAK1-1 = settings: 10 µM one dose; Renal Cancer; read-out: Growth Inhibition % CAK1-1
Experimental: as §1

EKVX = settings: Homo sapiens, 10 µM one dose, Non-small cell lung Cancer, read-out: Growth Inhibition % EKVX
Experimental: as §1

HOP-62 = settings: Homo sapiens, 10 µM one dose, Non-small cell lung Cancer, read-out: Growth Inhibition % HOP-62
Experimental: as §1

HS 578T = settings: Homo sapiens, 10 µM one dose, Breast Cancer, read-out: Growth Inhibition % HS 578T
Experimental: as §1

K-562 = settings: Homo sapiens, K562; 10 µM one dose; Leukemia; read-out: Growth Inhibition % K-562
Experimental: as §1

KM12 = settings: Homo sapiens, 10 µM one dose, Colon Cancer, read-out: Growth Inhibition % KM12
Experimental: as §1

MCF7 = settings: Homo sapiens, 10 µM one dose, Breast Cancer, read-out: Growth Inhibition % MCF7
Experimental: as §1

MOLT-4 = settings: Homo sapiens, 10 µM one dose, Leukemia, read-out: Growth Inhibition % MOLT-4
Experimental: as §1

NCI-H226 = settings: Homo sapiens, 10 µM one dose, Non-small cell lung Cancer, read-out: Growth Inhibition % NCI-H226
Experimental: as §1

NCI-H460 = settings: Homo sapiens, 10 µM one dose, Non-small cell lung Cancer, read-out: Growth Inhibition % NCI-H460
Experimental: as §1

NCI-H522 = settings: Homo sapiens, 10 µM one dose, Non-small cell lung Cancer, read-out: Growth Inhibition % NCI-H522
Experimental: as §1

OVCAR-5 = settings: Homo sapiens, 10 µM one dose, Ovarian Cancer, read-out: Growth Inhibition % OVCAR-5
Experimental: as §1

PC-3 = settings: Homo sapiens, 10 µM one dose, Prostate Cancer, read-out: Growth Inhibition % PC-3
Experimental: as §1

SNB-75 = settings: Homo sapiens, 10 µM one dose, CNS Cancer, read-out: Growth Inhibition % SNB-75
Experimental: as §1

HOP-92 = settings: Homo sapiens, 10 µM one dose, Non-small cell lung Cancer, read-out: Growth Inhibition % HOP-92
Experimental: as §1

PRMI-8226 = settings: 10 µM one dose; Leukemia; read-out: Growth Inhibition % PRMI-8226
Experimental: as §1

Row | Compound | inhibition at 10 µM (A498) | inhibition at 10 µM (A549/ATTC) | inhibition at 10 µM (CAK1-1) | inhibition at 10 µM (EKVX) | inhibition at 10 µM (HOP-62) | inhibition at 10 µM (HS 578T) | inhibition at 10 µM (K-562) | inhibition at 10 µM (KM12) | inhibition at 10 µM (MCF7) | inhibition at 10 µM (MOLT-4) | inhibition at 10 µM (NCI-H226) | inhibition at 10 µM (NCI-H460) | inhibition at 10 µM (NCI-H522) | inhibition at 10 µM (OVCAR-5) | inhibition at 10 µM (PC-3) | inhibition at 10 µM (SNB-75) | inhibition at 10 µM (HOP-92) | inhibition at 10 µM (PRMI-8226)
1 | COc1cc(/C=N/NC(=O)Cn2c(-c3ccc(C)o3)nc3ccccc32)ccc1OCc1ccccc1 [Compound 17f, (E)-N′-(4-(Benzyloxy)-3-methoxybenzylidene)-2-(2-(5-methylfuran-2-yl)-1H-benzo[d]imidazol-1-yl)acetohydrazide] | 21% | 27% | 17% | 25% | < 10% | 30% | 34% | 15% | 24% | 50% | 16% | < 10% | 26% | < 10% | 37% | 17% |  | 
2 | C/C(=N\NC(=O)Cn1c(C(C)C)nc2ccccc21)c1ccccc1 [Compound 14a, (E)-2-(2-Isopropyl-1H-benzo[d]imidazol-1-yl)-N′-(1-phenylethylidene)acetohydrazide] | 49% | < 10% | 12% | < 10% | < 10% | 24% | < 10% | < 10% | < 10% | < 10% | 22% | < 10% | < 10% | 21% | < 10% | 18% | 18% | < 10%
3 | COc1cc(/C=N/NC(=O)Cn2c(C(C)C)nc3ccccc32)ccc1OCc1ccccc1 [Compound 17e, (E)-N′-(4-(Benzyloxy)-3-methoxybenzylidene)-2-(2-isopropyl-1H-benzo[d]imidazol-1-yl)acetohydrazide] | 22% | < 10% | < 10% | < 10% | < 10% | < 10% | 25% | < 10% | < 10% | 22% | < 10% | < 10% | 32% | < 10% | 20% | < 10% | < 10% | 
4 | CC(C)c1nc2ccccc2n1CC(=O)N/N=C/c1ccc(OCc2ccccc2)cc1 [Compound 17c, (E)-N′-(4-(Benzyloxy)benzylidene)-2-(2-isopropyl-1H-benzo[d]imidazol-1-yl)acetohydrazide] | < 10% | < 10% | 15% | < 10% | < 10% | 16% | 28% | < 10% | < 10% | 25% | < 10% | < 10% | 26% | < 10% | 17% | < 10% | < 10% | 
